The test system of one experiment is HL-60. In words: In vitro antitumor activity against HL60 (Human leukemia) cells. It counts as functional, cell-based.
In a further experiment the test system is Human alphaherpesvirus 2. In words: Antiviral activity against herpes simplex virus-2. It counts as functional, organism-based.
A further experiment concerns Human alphaherpesvirus 1. The experiment can be described thus: Antiviral activity against herpes simplex virus-1. In kind it is functional, organism-based.
In another experiment the test system is L1210. In words: In vitro antitumor activity against L1210 (murine leukemia) cells. In kind it is functional, cell-based. The following applies: Mus musculus.

Bounds are passed on as bounds.

Turning to `COc1ccc(OC)c2c(O)ccnc12`, the 50% inhibitory concentration (IC50) – broadly, the concentration needed to halve the response being measured – in the experiment with HL-60 is more than 30 µM; in the experiment on Human alphaherpesvirus 2, more than 100 µM; in the experiment on Human alphaherpesvirus 1, more than 100 µM; in the experiment on L1210, more than 40 µM.

Consider `COc1cc2nccc(O)c2cc1OC`, for which the IC50 in the experiment on HL-60 is more than 30 µM; with Human alphaherpesvirus 2 it was more than 100 µM; with Human alphaherpesvirus 1, more than 100 µM; in the experiment with L1210, more than 40 µM.

As to `COc1ccc2c(O)ccnc2c1`, the IC50 was more than 30 µM with HL-60, more than 100 µM with Human alphaherpesvirus 2, more than 100 µM in the experiment on Human alphaherpesvirus 1 and more than 40 µM with L1210.

Consider `COc1cc2c(c(O)c1OC)c(=O)ccn2C`, for which the IC50 in the experiment with HL-60 is more than 30 µM; in the experiment with Human alphaherpesvirus 2, more than 100 µM; with Human alphaherpesvirus 1, more than 100 µM; in the experiment on L1210, more than 40 µM.

With `COc1cc(OC)c2c(=O)ccn(C)c2c1`, the IC50 in the experiment with HL-60 was more than 30 µM; in the experiment with Human alphaherpesvirus 2 it was more than 100 µM; in the experiment with Human alphaherpesvirus 1 it was more than 100 µM; with L1210, more than 40 µM.

With `COc1cc(OC)c2c(=O)cc[nH]c2c1`, the results for the IC50 in the experiment on HL-60 and in the experiment with L1210 were more than 30 µM and more than 40 µM, respectively.

As for `COc1ccc(O)c2c(=O)ccn(C)c12`, the IC50 with HL-60 is more than 30 µM; in the experiment with Human alphaherpesvirus 2 it was more than 100 µM; with Human alphaherpesvirus 1 it was more than 100 µM; with L1210, more than 40 µM.

Take `COc1cc2nccc(O)c2c(O)c1OC`: the IC50 with HL-60 is more than 30 µM; with Human alphaherpesvirus 2, more than 100 µM; in the experiment on Human alphaherpesvirus 1, more than 100 µM; with L1210, more than 40 µM.

As to `COc1ccc(C)c2nccc(O)c12`, the IC50 in the experiment with HL-60 was more than 30 µM; with Human alphaherpesvirus 2 it was more than 100 µM; with Human alphaherpesvirus 1, more than 100 µM; in the experiment with L1210 it was more than 40 µM.

Consider `COc1cc(C(F)(F)F)cc2nccc(O)c12`, for which the IC50 in the experiment on HL-60 is more than 30 µM; in the experiment with Human alphaherpesvirus 2, more than 100 µM; with Human alphaherpesvirus 1 it was more than 100 µM; with L1210, more than 40 µM.

Turning to `Oc1cccc2nccc(O)c12`, the IC50 in the experiment on HL-60 is more than 30 µM; with Human alphaherpesvirus 2, 83 µM; in the experiment on Human alphaherpesvirus 1, 54 µM; in the experiment with L1210, more than 40 µM.

With `COc1cc(C(F)(F)F)c2c(O)ccnc2c1`, the IC50 with HL-60 is more than 30 µM; in the experiment on Human alphaherpesvirus 2 it was 29.4 µM; with Human alphaherpesvirus 1, 29.4 µM; in the experiment with L1210, more than 40 µM.

With `COc1cc2nccc(O)c2c(OC)c1OC`, the IC50 was more than 30 µM in the experiment with HL-60, more than 100 µM in the experiment with Human alphaherpesvirus 2, more than 100 µM in the experiment with Human alphaherpesvirus 1 and more than 40 µM with L1210.

As for `COc1cc2c(c(OC)c1OC)c(=O)ccn2C`, the IC50 was more than 30 µM in the experiment on HL-60, more than 100 µM in the experiment with Human alphaherpesvirus 2, more than 100 µM in the experiment on Human alphaherpesvirus 1 and more than 40 µM in the experiment on L1210.

In the case of `COc1ccc(O)c2c(O)ccnc12`, the IC50 in the experiment with HL-60 is 17.7 µM; in the experiment with Human alphaherpesvirus 2, more than 100 µM; with Human alphaherpesvirus 1, 82.6 µM.

As for `COc1cc2c(O)ccnc2cc1O`, the IC50 with HL-60 is more than 30 µM; in the experiment on Human alphaherpesvirus 2, more than 100 µM; with Human alphaherpesvirus 1, more than 100 µM; in the experiment with L1210, more than 40 µM.

As to `COc1cc2c(=O)ccn(C)c2cc1OC`, the IC50 is more than 30 µM in the experiment on HL-60, more than 100 µM with Human alphaherpesvirus 2, more than 100 µM in the experiment with Human alphaherpesvirus 1 and more than 40 µM in the experiment with L1210.

Turning to `COc1cc(O)c2c(O)ccnc2c1`, the IC50 with HL-60 was more than 30 µM; in the experiment with L1210, more than 40 µM.

Consider `COc1ccc(Cl)c2nccc(O)c12`, for which the IC50 is more than 30 µM in the experiment with HL-60, more than 100 µM with Human alphaherpesvirus 2, more than 100 µM in the experiment on Human alphaherpesvirus 1 and more than 40 µM in the experiment on L1210.

Consider `Oc1ccnc2cc(C(F)(F)F)cc(O)c12`, for which the IC50 with HL-60 is more than 30 µM; with L1210 it was more than 40 µM.

Turning to `Cc1ccc(O)c2c(O)ccnc12`, the IC50 with HL-60 is more than 30 µM; in the experiment on Human alphaherpesvirus 2, more than 100 µM; in the experiment with Human alphaherpesvirus 1, 27.1 µM; in the experiment with L1210, more than 40 µM.

On to `Nc1nc2c(ncn2COCCO)c(=O)[nH]1` [ACYCLOVIR], for which the IC50 was determined as 2.1 µM in the experiment on Human alphaherpesvirus 2 and 0.2 µM with Human alphaherpesvirus 1.

In the case of `Nc1ccn([C@@H]2O[C@H](CO)[C@@H](O)[C@@H]2O)c(=O)n1` [CYTARABINE], the IC50 in the experiment with Human alphaherpesvirus 2 came to 2 µM; in the experiment on Human alphaherpesvirus 1 it was 0.3 µM.

For the molecule `COc1c(OC)c(OC)c2c(c1O)c(=O)c1ccc(O)c(OC)c1n2C` [GLYFOLINE], the half-maximal inhibitory concentration (IC50) in the experiment on HL-60 was 1.4 µM; with L1210, 26.5 µM.
